This note sets out measurements from patent US8293769B2, “CSF-1R inhibitors, compositions, and methods of use” (Novartis AG, priority 2008, dated 2012).

Experiment [1] deals with T1, cytoplasmic domain of the human CSF-1R (Homo sapiens, UniProt P07333).
T1 construct: Recombinant protein corresponding to the cytoplasmic domain of the human CSF-1R; purchased Invitrogen Corporation, Carlsbad, Calif; PV3249
T1 sequence (P07333 539-972 limits assumed): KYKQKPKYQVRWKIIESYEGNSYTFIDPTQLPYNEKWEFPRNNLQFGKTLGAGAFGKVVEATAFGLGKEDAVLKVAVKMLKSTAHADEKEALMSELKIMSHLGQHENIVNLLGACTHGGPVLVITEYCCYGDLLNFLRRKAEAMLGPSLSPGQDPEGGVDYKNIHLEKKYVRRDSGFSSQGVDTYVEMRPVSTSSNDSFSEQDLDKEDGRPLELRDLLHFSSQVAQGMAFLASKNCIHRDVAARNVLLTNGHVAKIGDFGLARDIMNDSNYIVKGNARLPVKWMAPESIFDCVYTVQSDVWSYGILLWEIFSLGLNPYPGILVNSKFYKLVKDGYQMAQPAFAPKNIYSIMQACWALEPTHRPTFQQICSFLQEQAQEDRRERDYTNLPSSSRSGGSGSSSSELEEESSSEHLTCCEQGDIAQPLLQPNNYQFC
As to the kind of experiment: In vitro kinase assay for CSF-1R (AlphaScreen). The experiment is classed as biochemical. The following applies: tested at about 1 μM; read-out: CSF1RK 1 percent inhibition. How it is done: The kinase activity of various protein tyrosine kinases can be measured by providing ATP and a suitable peptide or protein tyrosine-containing substrate, and assaying the transfer of phosphate moiety to the tyrosine residue. Recombinant protein corresponding to the cytoplasmic domain of the human CSF-1R was purchased from Invitrogen Corporation, Carlsbad, Calif. U.S.A. (#PV3249). For each assay, test compounds were serially diluted, starting at 25 μM with 3 fold dilutions, in DMSO in 384 well plates then mixed with an appropriate kinase reaction buffer consisting of 50 mM Hepes, 5 mM MgCl2, 10 mM MnCl2, 0.1% BSA, pH 7.5, 1.0 mM dithiothreitol, 0.01% Tween 80 plus 1 μM ATP. Kinase protein and an appropriate biotinylated peptide substrate at 50 nM were added to give a final volume of 20 μL, reactions were incubated for 2 hours at room temperature and stopped by the addition of 10 μL of 45 mM EDTA, 50 mM Hepes pH 7.5. Added to the stopped reaction mix was 30 μL of PT66 Alphascreen beads (Perkin Elmer, Boston, Mass., U.S.A.). The reaction was incubated overnight and read on the Envision (Perkin Elmer). Phosphorylated peptide product was measured with the AlphaScreen system (Perkin Elmer) using acceptor beads coated with anti-phosphotyrosine antibody PT66 and donor beads coated with streptavidin that emit a fluorescent signal at the 520-620 nm emission wave length if in close proximity. The concentration of each compound for 50% inhibition (IC50) was calculated by non-linear regression using XL Fit data analysis software.
CSF-1R kinase was assayed in 50 mM Hepes pH 7.0, 5 mM MgCl2, 10 mM MnCl2, 1 mM DTT, 1 mg/mL BSA, 1.0 μM ATP, and 0.05 μM biotin-GGGGRPRAATF-NH2 (SEQ ID NO:1) peptide substrate. CSF-1R kinase was added at final concentration of 4 nM.

For another experiment, the target named is T2, cKIT (Homo sapiens, UniProt P10721).
T2 construct: The kinase domain of cKIT was assayed in 50 mM Hepes; purchased Upstate 14-559
As to the kind of experiment: cKIT kinase in vitro biochemical assay (alphascreen). The conditions noted are these: tested at about 1 μM; read-out: CKIT percent inhibition. Here is the method:
(§1) The IC50 values for the inhibition of RTKs were determined in the alphascreen format measuring the inhibition by compound of phosphate transfer to a substrate by the respective enzyme. Briefly, the respective RTK domain purchased as human recombinant protein (cKIT Upstate #14-559, PDGFRb Invitrogen #P3082) were incubated with serial dilutions of compound in the presence of substrate and ATP concentrations within 3 times the Km of the enzyme.
(§2) The kinase domain of cKIT was assayed in 50 mM Hepes, pH=7.5, 5 mM MgCl2, 10 mM MnCl2, 1 mM DTT, 0.1% BSA with 0.06 uM biotinylated peptide substrate (GGLFDDPSYVNVQNL-NH2) and 15 uM ATP (ATP KM apparent=15 uM). The kinase domain of PDGFRβ was assayed in 50 mM Hepes, pH=7.5, 20 mM MgCl2, 1 mM DTT, 0.1% BSA with 0.1 uM biotinylated peptide substrate (GGLFDDPSYVNVQNL-NH2) and 10 uM ATP (ATP KM apparent=25 uM). Reactions were incubated at room temperature for 3 to 4 hr and stopped with buffer (20 mM EDTA, 0.01% Tween-20 for both PDGFRb and cKIT). Alphascreen PY20 beads were added to the stopped cKIT reactions and PY20 Ab/Protein A Alphascreen beads were added to the PDGFRβ stopped reactions. Both reactions were incubated overnight and read on the Alphascreen reader. The concentration of compound for 50% inhibition (IC50) was calculated employing non-linear regression using XL-Fit data analysis software. As a control compound, staurosporine is run in every assay and a Z′>0.5 is required to validate results.

For a further experiment, the target named is T3, PDGFRb (Homo sapiens, UniProt P09619).
T3 construct: The kinase domain of PDGFRβ was assayed in 50 mM Hepes; purchased Invitrogen P3082
Briefly: PDGFRb kinase in vitro biochemical assay (alphascreen). The conditions noted are these: tested at about 1 μM; read-out: PDGF RK BETA percent inhibition. How it is done: as §1, §2
Background: Alpha assays give light when donor and acceptor beads are brought close together.

T2 sequence (P10721 589-937 limits assumed): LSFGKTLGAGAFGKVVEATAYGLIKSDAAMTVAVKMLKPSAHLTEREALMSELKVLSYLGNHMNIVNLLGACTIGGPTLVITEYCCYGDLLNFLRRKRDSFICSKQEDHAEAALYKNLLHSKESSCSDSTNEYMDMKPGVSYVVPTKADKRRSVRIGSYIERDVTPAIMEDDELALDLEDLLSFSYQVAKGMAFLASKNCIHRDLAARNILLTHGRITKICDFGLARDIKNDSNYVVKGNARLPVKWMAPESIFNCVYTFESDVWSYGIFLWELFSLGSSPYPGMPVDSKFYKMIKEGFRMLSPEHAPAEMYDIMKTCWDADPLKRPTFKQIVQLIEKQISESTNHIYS
T3 sequence (P09619 600-962 limits assumed): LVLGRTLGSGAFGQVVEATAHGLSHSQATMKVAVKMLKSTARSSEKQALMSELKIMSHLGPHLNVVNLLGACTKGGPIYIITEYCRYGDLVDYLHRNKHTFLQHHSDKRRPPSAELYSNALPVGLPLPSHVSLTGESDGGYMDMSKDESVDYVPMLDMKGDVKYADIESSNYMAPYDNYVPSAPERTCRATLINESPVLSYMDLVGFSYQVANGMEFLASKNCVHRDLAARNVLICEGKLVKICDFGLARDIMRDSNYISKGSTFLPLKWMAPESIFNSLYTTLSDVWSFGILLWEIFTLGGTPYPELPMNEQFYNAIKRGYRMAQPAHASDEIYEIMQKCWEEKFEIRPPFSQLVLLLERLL

For `CNC(=O)c1cncc(Oc2ccc3nc(N[C@@H]4CCCC[C@H]4O)sc3c2)n1` [Compound 52, 6-(2-((1R,2R)-2-hydroxycyclohexylamino)benzo[d]thiazol-6-yloxy)-N-methylpyrazine-2-carboxamide], the inhibition at 1 µM in experiment [1] stood at 78%; at cKIT it was 33%; on PDGFRb, 12%.
Taken in the same sequence, the figures for `CNC(=O)c1ccc(Oc2ccc3nc(N[C@@H]4CCCC[C@H]4O)sc3c2)cn1` [Compound 54, 5-(2-((1R,2R)-2-hydroxycyclohexylamino)benzo[d]thiazol-6-yloxy)-N-methylpicolinamide] were 87%, 56% and 13%.
As for `O[C@@H]1CCCC[C@H]1Nc1nc2ccc(Oc3cncc(-c4cn[nH]c4)c3)cc2s1` [Compound 55, (1R,2R)-2-(6-(5-(1H-pyrazol-4-yl)pyridin-3-yloxy)benzo [d]thiazo-2-ylamino)cyclohexanol], the inhibition at 1 µM in experiment [1] was found to be 100%; on cKIT, 84%; on PDGFRb, 19%.
Regarding `CCCn1cc(-c2cncc(Oc3ccc4nc(N[C@@H]5CCCC[C@H]5O)sc4c3)c2)cn1` [Compound 58, (1R,2R)-2-(6-(5-(1-propyl-1H-pyrazol-4-yl)pyridin-3-yloxy)benzo[d]thiazol-2-ylamino)cyclohexanol], the inhibition at 1 µM in experiment [1] turned out to be 100%; at cKIT it was 86%; at PDGFRb, 7%.
For `O[C@@H]1CCCC[C@H]1Nc1nc2ccc(Oc3cncc(-c4cnn(CCN5CCOCC5)c4)c3)cc2s1` [Compound 59, (1R,2R)-2-(6-(5-(1-(2-morpholinoethyl)-1H-pyrazol-4-yl)pyridin-3-yloxy)benzo[d]thiazol-2-ylamino)cyclohexanol] the same measures were 100%, 78% and 16%.
As for `O[C@@H]1CCCC[C@H]1Nc1nc2ccc(Oc3cncc(-c4cnc5[nH]ccc5c4)c3)cc2s1` [Compound 61, (1R,2R)-2-(6-(5-(1H-pyrrolo[2,3-b]pyridin-5-yl)pyridin-3-yloxy)benzo[d]thiazol-2-ylamino) cyclohexanol], the inhibition at 1 µM stood at 100% in experiment [1], 84% on cKIT and 8% on PDGFRb.
For `CN1CCN(c2ccc(-c3cncc(Oc4ccc5nc(N[C@@H]6CCCC[C@H]6O)sc5c4)c3)cn2)CC1` [Compound 62, (1R,2R)-2-(6-(6′-(4-methylpiperazin-1-yl)-3,3′-bipyridin-5-yloxy)benzo[d]thiazol-2-ylamino) cyclohexanol] the same measures were 100%, 77% and 26%.
For `O[C@@H]1CCCC[C@H]1Nc1nc2ccc(Oc3cncc(C4CC4)c3)cc2s1` [Compound 65, (1R,2R)-2-(6-(5-cyclopropylpyridin-3-yloxy)benzo[d]thiazol-2-ylamino) cyclohexanol] the same measures were 100%, 73% and 8%.
Taken in the same sequence, the figures for `O[C@@H]1CCCC[C@H]1Nc1nc2ccc(Oc3cncc(-c4ccccn4)c3)cc2s1` [Compound 67] were 100%, 94% and 36%.
With `O[C@@H]1CCCC[C@H]1Nc1nc2ccc(Oc3cncc(-c4cscn4)c3)cc2s1` [Compound 69, (1R,2R)-2-(6-(5-(thiazol-4-yl)pyridin-3-yloxy)benzo[d]thiazol-2-ylamino) cyclohexanol], the inhibition at 1 µM was 100% in experiment [1], 97% at cKIT and 31% at PDGFRb.
Taken in the same sequence, the figures for `O=[N+]([O-])c1ccc(Oc2ccc3nc(NCC4CCCCC4)sc3c2)cn1` [Compound 71, N-(cyclohexylmethyl)-6-(6-nitropyridin-3-yloxy)benzo [d]thiazol-2-amine] were 25%, 11% and 1%.
Taken in the same sequence, the figures for `O[C@@H]1CCCC[C@H]1Nc1nc2ccc(Oc3cncc(-c4ccc(N5CCOCC5)nc4)c3)cc2s1` [Compound 72, (1R,2R)-2-(6-(6′-morpholino-3,3′-bipyridin-5-yloxy)benzo[d]thiazol-2-ylamino)cyclohexanol] were 100%, 76% and 10%.
Taken in the same sequence, the figures for `O[C@@H]1CCCC[C@H]1Nc1nc2ccc(Oc3cncc(-c4ccnc(N5CCOCC5)c4F)c3)cc2s1` [Compound 77] were 100%, 83% and 6%.
Regarding `O[C@@H]1CCCC[C@H]1Nc1nc2ccc(Oc3cncc(-c4ccn[nH]4)c3)cc2s1` [Compound 78, (1R,2R)-2-(6-(5-(1H-pyrazol-5-yl)pyridin-3-yloxy)benzo [d]thiazol-2-ylamino)cyclohexanol], the inhibition at 1 µM in experiment [1] stood at 100%; on cKIT, 88%; at PDGFRb, 9%.
Regarding `O[C@@H]1CCCC[C@H]1Nc1nc2ccc(Oc3cncc(-c4cnn(CC(F)F)c4)c3)cc2s1` [Compound 82, (1R,2R)-2-(6-(5-(1-(2,2-difluoroethyl)-1H-pyrazol-4-yl)pyridin-3-yloxy)benzo[d]thiazol-2-ylamino)cyclohexanol], the inhibition at 1 µM was 100% in experiment [1], 82% at cKIT and 0% at PDGFRb.
For `O[C@@H]1CCCC[C@H]1Nc1nc2ccc(Oc3cncc(-c4ncco4)c3)cc2s1` [Compound 83, (1R,2R)-2-(6-(5-(oxazol-2-yl)pyridin-3-yloxy)benzo[d]thiazol-2-ylamino) cyclohexanol] the same measures were 100%, 86% and 98%.
For `N#Cc1ccc(Oc2ccc3nc(NCC4CCCCC4)sc3c2)cn1` [Compound 86, 5-(2-(cyclohexylmethylamino)benzo [d]thiazol-6-yloxy) picolinonitrile] the same measures were 39%, 19% and 1%.
For `C[C@H](Nc1nc2ccc(Oc3ccc(C#N)nc3)cc2s1)C1CCCCC1` [Compound 87, (S)-5-(2-(1-cyclohexylethylamino)benzo[d]thiazol-6-yloxy)picolinonitrile] the same measures were 32%, 16% and 0%.

As usually defined, the inhibition is the share of the control response that was lost under treatment.
